Test results as given in ChEMBL document CHEMBL4507298 (2021).

Tests used:
[1] = biological target: NUAK family SNF1-like kinase 2 (Homo sapiens) (UniProt Q9H093); conditions: Compound concentration 1000.0 nM
[2] = biological target: cGMP-dependent 3',5'-cyclic phosphodiesterase (Homo sapiens) (UniProt O00408); test: PDE2 (h) CEREP ligand profiling; conditions: Compound concentration 10.0 uM
[3] = biological target: Beta-adrenergic receptor kinase 1 (Homo sapiens) (UniProt P25098); conditions: Compound concentration 1000.0 nM
[4] = biological target: Glycogen synthase kinase-3 alpha (Homo sapiens) (UniProt P49840); conditions: Compound concentration 1000.0 nM
[5] = biological target: RAC-gamma serine/threonine-protein kinase (Homo sapiens) (UniProt Q9Y243); conditions: Compound concentration 1000.0 nM
D(1A) dopamine receptor = D(1A) dopamine receptor (Homo sapiens, UniProt P21728); test: D1 (h) CEREP ligand profiling; conditions: Compound concentration 10.0 uM
[6] = biological target: Mu-type opioid receptor (Homo sapiens) (UniProt P35372); test: mu (h) (MOP) (agonist site) CEREP ligand profiling; conditions: Compound concentration 10.0 uM
[7] = biological target: Serine/threonine-protein kinase LATS1 (Homo sapiens) (UniProt O95835); conditions: Compound concentration 1000.0 nM
[8] = biological target: Cyclin-dependent kinase-like 5 (Homo sapiens) (UniProt O76039); conditions: Compound concentration 1000.0 nM
[9] = biological target: Voltage-gated L-type calcium channel (verapamil site) (Homo sapiens, UniProt O60840+Q01668+Q13698+Q13936); test: Ca2+ channel (L, verapamil site) CEREP ligand profiling; format: protein assay; conditions: compound concentration 10 uM
[10] = biological target: Serine/threonine-protein kinase pim-1 (Homo sapiens) (UniProt P11309); conditions: Compound concentration 1000.0 nM
Serine/threonine-protein kinase pim-1 (Homo sapiens), sequence (P11309 whole entry, looked up): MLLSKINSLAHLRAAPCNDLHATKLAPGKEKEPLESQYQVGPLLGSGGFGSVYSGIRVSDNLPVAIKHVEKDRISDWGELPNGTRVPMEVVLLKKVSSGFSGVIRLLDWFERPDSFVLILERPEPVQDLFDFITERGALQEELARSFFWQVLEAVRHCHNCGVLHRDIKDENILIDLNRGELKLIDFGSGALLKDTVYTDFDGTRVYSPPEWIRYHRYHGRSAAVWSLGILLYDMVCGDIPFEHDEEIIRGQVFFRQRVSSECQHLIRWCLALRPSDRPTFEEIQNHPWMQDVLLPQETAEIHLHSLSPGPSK

[11] = biological target: T1, 5-hydroxytryptamine receptor 2C (Homo sapiens) (UniProt P28335); test: 5-HT2C (h) (agonist site) CEREP ligand profiling; conditions: Compound concentration 10.0 uM
T1 sequence (whole entry): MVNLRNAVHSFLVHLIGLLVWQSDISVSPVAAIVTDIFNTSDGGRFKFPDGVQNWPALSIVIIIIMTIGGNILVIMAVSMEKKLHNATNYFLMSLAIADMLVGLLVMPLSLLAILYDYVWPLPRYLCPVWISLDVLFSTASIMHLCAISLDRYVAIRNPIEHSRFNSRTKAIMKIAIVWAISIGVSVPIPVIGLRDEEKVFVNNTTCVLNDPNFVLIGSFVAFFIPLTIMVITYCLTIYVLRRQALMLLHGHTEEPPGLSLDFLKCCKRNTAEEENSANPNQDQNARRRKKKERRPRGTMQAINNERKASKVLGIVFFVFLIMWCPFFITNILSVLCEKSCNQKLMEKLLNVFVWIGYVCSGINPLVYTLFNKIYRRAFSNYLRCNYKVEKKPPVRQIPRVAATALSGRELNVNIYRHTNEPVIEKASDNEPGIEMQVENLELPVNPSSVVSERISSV

[12] = biological target: Phosphatidylinositol 4-phosphate 5-kinase type-1 gamma (Homo sapiens) (UniProt O60331); conditions: Compound concentration 1000.0 nM
[13] = biological target: Serine/threonine-protein kinase WNK3 (Homo sapiens) (UniProt Q9BYP7); conditions: Compound concentration 1000.0 nM
Serine/threonine-protein kinase WNK3 (Homo sapiens), sequence (Q9BYP7 whole entry): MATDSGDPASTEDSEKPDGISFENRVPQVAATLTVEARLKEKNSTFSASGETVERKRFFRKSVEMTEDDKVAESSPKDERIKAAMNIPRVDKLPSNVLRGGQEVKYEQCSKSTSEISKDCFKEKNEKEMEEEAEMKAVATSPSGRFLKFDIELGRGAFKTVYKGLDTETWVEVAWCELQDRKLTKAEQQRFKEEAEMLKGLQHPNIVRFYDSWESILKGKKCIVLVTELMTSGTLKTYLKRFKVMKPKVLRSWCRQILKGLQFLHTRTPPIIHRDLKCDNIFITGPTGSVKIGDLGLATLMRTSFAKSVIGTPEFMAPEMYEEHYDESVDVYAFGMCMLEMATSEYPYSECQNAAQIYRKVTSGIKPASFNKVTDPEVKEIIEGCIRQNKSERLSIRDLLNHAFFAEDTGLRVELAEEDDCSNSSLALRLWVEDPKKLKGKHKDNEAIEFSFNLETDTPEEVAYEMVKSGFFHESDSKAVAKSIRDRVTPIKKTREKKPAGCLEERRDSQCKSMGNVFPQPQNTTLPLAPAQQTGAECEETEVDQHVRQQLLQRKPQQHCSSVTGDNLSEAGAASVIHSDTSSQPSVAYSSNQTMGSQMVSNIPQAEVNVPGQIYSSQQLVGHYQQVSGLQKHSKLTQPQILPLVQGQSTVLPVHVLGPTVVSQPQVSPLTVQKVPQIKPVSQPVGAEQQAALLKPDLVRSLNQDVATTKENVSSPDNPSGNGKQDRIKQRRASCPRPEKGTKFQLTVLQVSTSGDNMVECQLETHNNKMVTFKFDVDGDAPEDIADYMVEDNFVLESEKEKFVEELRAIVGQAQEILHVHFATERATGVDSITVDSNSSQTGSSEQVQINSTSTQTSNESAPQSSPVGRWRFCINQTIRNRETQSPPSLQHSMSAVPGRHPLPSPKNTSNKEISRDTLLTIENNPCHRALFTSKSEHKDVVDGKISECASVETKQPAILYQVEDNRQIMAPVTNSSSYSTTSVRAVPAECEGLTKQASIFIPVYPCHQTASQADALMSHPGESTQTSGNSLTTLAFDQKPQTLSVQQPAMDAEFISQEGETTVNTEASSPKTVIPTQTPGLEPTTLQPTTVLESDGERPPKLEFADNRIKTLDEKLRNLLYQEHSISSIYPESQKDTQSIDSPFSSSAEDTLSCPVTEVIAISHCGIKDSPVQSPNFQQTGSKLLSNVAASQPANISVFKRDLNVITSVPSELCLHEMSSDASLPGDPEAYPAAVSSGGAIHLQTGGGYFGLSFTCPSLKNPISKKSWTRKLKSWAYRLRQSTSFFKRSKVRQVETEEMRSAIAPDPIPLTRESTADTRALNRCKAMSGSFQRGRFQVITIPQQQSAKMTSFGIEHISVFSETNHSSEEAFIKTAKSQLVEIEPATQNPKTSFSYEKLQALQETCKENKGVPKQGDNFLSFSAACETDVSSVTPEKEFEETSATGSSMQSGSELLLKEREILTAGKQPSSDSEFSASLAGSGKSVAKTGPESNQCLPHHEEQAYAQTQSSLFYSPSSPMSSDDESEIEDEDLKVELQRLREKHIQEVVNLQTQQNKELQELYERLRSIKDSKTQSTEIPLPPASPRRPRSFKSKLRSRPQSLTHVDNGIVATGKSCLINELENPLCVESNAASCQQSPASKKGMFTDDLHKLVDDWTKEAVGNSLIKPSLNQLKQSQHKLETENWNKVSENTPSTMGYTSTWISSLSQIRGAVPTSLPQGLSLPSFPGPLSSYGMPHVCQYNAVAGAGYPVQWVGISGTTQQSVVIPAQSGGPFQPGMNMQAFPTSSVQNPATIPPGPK

[14] = biological target: Dual specificity protein kinase CLK3 (Homo sapiens) (UniProt P49761); conditions: Compound concentration 1000.0 nM
[15] = biological target: Interleukin-1 receptor-associated kinase 4 (Homo sapiens) (UniProt Q9NWZ3); conditions: Compound concentration 1000.0 nM
Interleukin-1 receptor-associated kinase 4 (Homo sapiens), sequence (Q9NWZ3 whole entry): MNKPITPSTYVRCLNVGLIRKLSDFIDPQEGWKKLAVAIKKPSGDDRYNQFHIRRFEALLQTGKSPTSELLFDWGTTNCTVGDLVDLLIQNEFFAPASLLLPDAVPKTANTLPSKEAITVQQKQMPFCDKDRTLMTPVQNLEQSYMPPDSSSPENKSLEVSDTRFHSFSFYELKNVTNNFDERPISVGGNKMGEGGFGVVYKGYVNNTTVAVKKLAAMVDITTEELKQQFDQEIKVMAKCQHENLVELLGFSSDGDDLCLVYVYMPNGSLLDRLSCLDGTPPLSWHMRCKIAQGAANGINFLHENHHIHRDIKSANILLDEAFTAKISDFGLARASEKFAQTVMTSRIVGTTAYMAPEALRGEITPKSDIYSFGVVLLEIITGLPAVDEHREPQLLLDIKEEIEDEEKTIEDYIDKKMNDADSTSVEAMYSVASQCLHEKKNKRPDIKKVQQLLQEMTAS

[16] = Glycine (strychnine-insensitive) CEREP ligand profiling; conditions: Compound concentration 10.0 uM
[17] = biological target: Mitogen-activated protein kinase kinase kinase 3 (Homo sapiens) (UniProt Q99759); conditions: Compound concentration 1000.0 nM
[18] = biological target: Phosphodiesterase 4 (Rattus norvegicus) (UniProt P14270+P14646+P14644+P54748); test: Rolipram CEREP ligand profiling; format: protein assay; conditions: Compound concentration 10.0 uM
[19] = biological target: High affinity choline transporter 1 (Homo sapiens) (UniProt Q9GZV3); test: Choline transporter (h) (CHT1) CEREP ligand profiling; conditions: Compound concentration 10.0 uM
[20] = tested on: Fibroblast growth factor receptor 3 (Homo sapiens), P22607 [G697C]; conditions: Compound concentration 1000.0 nM
[21] = biological target: Serine/threonine-protein kinase Chk2 (Homo sapiens) (UniProt O96017); conditions: Compound concentration 1000.0 nM
[22] = biological target: Macrophage colony-stimulating factor 1 receptor (Homo sapiens) (UniProt P07333); conditions: Compound concentration 1000.0 nM
Macrophage colony-stimulating factor 1 receptor (Homo sapiens), sequence (P07333 whole entry): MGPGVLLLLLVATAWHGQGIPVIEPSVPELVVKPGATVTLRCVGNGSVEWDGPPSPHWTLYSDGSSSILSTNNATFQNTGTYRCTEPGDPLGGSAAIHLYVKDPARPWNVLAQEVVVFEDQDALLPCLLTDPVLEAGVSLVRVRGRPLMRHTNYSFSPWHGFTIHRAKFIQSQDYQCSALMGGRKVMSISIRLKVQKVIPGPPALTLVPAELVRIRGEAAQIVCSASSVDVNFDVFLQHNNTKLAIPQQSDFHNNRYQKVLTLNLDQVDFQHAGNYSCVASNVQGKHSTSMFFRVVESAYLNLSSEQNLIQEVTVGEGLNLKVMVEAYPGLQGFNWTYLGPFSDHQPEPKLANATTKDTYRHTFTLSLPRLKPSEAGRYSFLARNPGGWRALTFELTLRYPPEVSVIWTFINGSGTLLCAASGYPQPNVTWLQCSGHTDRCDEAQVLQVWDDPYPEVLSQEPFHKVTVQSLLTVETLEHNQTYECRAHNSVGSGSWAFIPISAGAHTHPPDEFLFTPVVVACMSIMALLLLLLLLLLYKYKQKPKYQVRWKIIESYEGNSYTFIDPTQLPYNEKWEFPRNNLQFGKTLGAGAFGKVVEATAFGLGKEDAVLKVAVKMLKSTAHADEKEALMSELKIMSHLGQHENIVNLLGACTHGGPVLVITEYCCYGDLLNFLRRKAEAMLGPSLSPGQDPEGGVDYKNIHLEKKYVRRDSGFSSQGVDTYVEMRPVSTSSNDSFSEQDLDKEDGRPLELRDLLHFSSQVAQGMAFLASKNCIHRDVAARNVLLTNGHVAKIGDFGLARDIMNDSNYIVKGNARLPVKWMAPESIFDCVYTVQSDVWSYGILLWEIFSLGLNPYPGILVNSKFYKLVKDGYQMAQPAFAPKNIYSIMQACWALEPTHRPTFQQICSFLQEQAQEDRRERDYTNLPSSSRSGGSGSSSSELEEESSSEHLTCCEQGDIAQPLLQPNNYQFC

[23] = biological target: Mitogen-activated protein kinase kinase kinase 14 (Homo sapiens) (UniProt Q99558); conditions: Compound concentration 1000.0 nM
[24] = biological target: Serine/threonine-protein kinase 16 (Homo sapiens) (UniProt O75716); conditions: Compound concentration 1000.0 nM
[25] = biological target: MAP kinase-interacting serine/threonine-protein kinase 1 (Homo sapiens) (UniProt Q9BUB5); conditions: Compound concentration 1000.0 nM
[26] = biological target: Motilin receptor (Homo sapiens) (UniProt O43193); test: Motilin (h) CEREP ligand profiling; conditions: Compound concentration 10.0 uM
[27] = biological target: Calcium/calmodulin-dependent protein kinase kinase 2 (Homo sapiens) (UniProt Q96RR4); conditions: Compound concentration 1000.0 nM
[28] = biological target: Acetylcholine receptor, muscle-type, subunit alpha-1 (Homo sapiens) (UniProt P02708); test: N (muscle-type) (h) CEREP ligand profiling; conditions: Compound concentration 10.0 uM
[29] = biological target: G protein-coupled receptor kinase 3 (Homo sapiens) (UniProt P35626); conditions: Compound concentration 1000.0 nM
[30] = tested on: Receptor-type tyrosine-protein kinase FLT3 (Homo sapiens), P36888 [N841I]; conditions: Compound concentration 1000.0 nM
[31] = biological target: Activin receptor type-1B (Homo sapiens) (UniProt P36896); conditions: Compound concentration 1000.0 nM
[32] = biological target: Tyrosine-protein kinase Fgr (Homo sapiens) (UniProt P09769); conditions: Compound concentration 1000.0 nM
[33] = biological target: Mitogen-activated protein kinase 11 (Homo sapiens) (UniProt Q15759); conditions: Compound concentration 1000.0 nM
[34] = biological target: Ephrin type-B receptor 3 (Homo sapiens) (UniProt P54753); conditions: Compound concentration 1000.0 nM
[35] = biological target: Mitogen-activated protein kinase kinase kinase 11 (Homo sapiens) (UniProt Q16584); conditions: Compound concentration 1000.0 nM
[36] = biological target: Vasopressin V1a receptor (Homo sapiens) (UniProt P37288); test: V1a (h) CEREP ligand profiling; conditions: Compound concentration 10.0 uM
Vasopressin V1a receptor (Homo sapiens), sequence (P37288 whole entry, looked up): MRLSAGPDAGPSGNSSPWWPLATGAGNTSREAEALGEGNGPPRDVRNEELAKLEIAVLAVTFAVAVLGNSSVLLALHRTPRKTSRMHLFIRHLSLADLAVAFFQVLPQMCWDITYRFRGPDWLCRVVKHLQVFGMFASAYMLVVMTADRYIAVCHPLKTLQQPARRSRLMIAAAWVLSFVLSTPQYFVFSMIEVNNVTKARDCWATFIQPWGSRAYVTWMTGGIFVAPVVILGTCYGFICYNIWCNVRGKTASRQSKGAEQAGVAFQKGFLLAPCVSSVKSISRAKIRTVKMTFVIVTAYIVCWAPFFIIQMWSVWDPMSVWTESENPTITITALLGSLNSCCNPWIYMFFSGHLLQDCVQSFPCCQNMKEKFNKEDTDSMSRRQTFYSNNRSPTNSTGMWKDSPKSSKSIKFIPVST

[37] = biological target: Cholecystokinin receptor type A (Homo sapiens) (UniProt P32238); test: CCKA (h) (CCK1) CEREP ligand profiling; conditions: Compound concentration 10.0 uM
[38] = biological target: Serine/threonine-protein kinase WNK1 (Homo sapiens) (UniProt Q9H4A3); conditions: Compound concentration 1000.0 nM

cGMP-dependent 3',5'-cyclic phosphodiesterase (Homo sapiens), sequence (O00408 whole entry): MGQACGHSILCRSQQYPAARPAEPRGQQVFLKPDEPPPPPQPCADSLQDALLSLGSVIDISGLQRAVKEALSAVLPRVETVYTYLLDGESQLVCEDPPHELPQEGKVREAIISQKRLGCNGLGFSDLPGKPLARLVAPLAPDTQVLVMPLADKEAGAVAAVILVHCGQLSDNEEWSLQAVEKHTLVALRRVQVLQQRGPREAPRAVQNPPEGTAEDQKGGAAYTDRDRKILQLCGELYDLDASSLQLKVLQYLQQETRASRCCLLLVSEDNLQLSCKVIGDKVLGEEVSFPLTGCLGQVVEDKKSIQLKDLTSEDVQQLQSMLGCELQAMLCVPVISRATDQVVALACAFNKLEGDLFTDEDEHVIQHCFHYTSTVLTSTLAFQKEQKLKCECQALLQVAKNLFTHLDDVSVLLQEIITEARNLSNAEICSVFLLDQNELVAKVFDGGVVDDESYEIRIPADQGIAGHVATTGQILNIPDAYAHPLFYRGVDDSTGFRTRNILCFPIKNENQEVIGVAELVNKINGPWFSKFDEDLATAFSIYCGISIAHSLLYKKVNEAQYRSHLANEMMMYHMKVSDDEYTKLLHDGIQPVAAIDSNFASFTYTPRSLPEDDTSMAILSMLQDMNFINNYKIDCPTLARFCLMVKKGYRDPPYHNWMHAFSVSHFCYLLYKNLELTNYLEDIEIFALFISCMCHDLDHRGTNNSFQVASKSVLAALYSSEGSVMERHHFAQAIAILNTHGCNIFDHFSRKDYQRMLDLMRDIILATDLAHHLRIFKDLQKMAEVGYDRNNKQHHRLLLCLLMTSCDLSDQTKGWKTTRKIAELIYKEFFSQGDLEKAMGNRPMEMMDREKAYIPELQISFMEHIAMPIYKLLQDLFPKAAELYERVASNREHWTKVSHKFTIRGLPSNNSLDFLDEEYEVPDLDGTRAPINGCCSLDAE

With `COc1ccc2cc(OCC3(C(=O)O)CN(C(=O)c4ccc(F)cc4)C3)ccc2c1` [PF-04418948] the residual activity [1] was 92%, the inhibition [2] was 5% and the residual activity [3] was 72%. For the same compound, the residual activity [4] was 96%, the residual activity [5] was 88% and the inhibition (D(1A) dopamine receptor) was 5%. The inhibition [6] was -7%, the residual activity [7] was 87% and the residual activity [8] was 97%. For the same compound, the inhibition at 10 µM [9] was -5% (not active), the residual activity [10] was 96% and the inhibition [11] was -6%. For the same compound, the residual activity [12] was 84%, the residual activity [13] was 93% and the residual activity [14] was 99%. It also gave a residual activity [15] of 87%, an inhibition [16] of 11% and a residual activity [17] of 97%. It also gave an inhibition [18] of 3%, an inhibition [19] of 4% and a residual activity [20] of 88%. The residual activity [21] was 93%, the residual activity [22] was 75% and the residual activity [23] was 82%. For the same compound, the residual activity [24] was 88%, the residual activity [25] was 93% and the inhibition [26] was -5%. The residual activity [27] was 94%, the inhibition [28] was -10% and the residual activity [29] was 67%. It also gave a residual activity [30] of 76%, a residual activity [31] of 78% and a residual activity [32] of 96%. It also gave a residual activity [33] of 78%, a residual activity [34] of 99% and a residual activity [35] of 79%. The inhibition [36] was -3%, the inhibition [37] was 29% and the residual activity [38] was 84%.
